From ChEMBL document CHEMBL1152050, “Asymmetric synthesis of enantiomerically pure 4-fluoroalkyl-2,3-dideoxy nucleosides” (Bioorg Med Chem Lett, 1994)

Columns and labels:
[1] = test system: MT4; assay: Antiviral activity expressed as ability to prevent the HIV-induced cytopathic effect in MT-4 cells at a dose of 100 ug/ml; No significant activity; format: functional, cell-based; conditions: Homo sapiens
[2] = test system: MT4; assay: Cytotoxicity by the MTT assay in MT-4 cells at a dose of 100 ug/ml; No significant activity; format: functional, cell-based; conditions: Homo sapiens

Compound	Activity [1]	Activity [2]
Cc1cn(C2CC[C@](CO)(CF)O2)c(=O)[nH]c1=O (single isomer, unassigned)	No significant activity	No significant activity
Cc1cn([C@@H]2CCC(CO)(CF)O2)c(=O)[nH]c1=O (single isomer, unassigned)	No significant activity	No significant activity
